{
  "source": "ChEMBL document CHEMBL3044596",
  "about": "“Stagonolides G-I and modiolide A, nonenolides produced by Stagonospora cirsii, a potential mycoherbicide for Cirsium arvense” (J Nat Prod, 2008)",
  "key": {"Cirsium arvense [1]": {"system": "Cirsium arvense", "test": "Herbicidal activity against Cirsium arvense (Canada thistle) assessed as induction of leaf necrosis at 1 mg/mL measured after 2 days post compound treatment by leaf disk-puncture bioassay", "format": "functional, organism-based"}, "Zea mays": {"system": "Zea mays", "test": "Phytotoxicity activity against Zea mays (maize) assessed as leaf necrotic lesion diameter at 1 mg/mL measured after 72 hr post compound treatment by leaf disk-puncture bioassay", "format": "organism-based", "settings": "in vivo"}, "Elymus repens": {"system": "Elymus repens", "test": "Phytotoxicity activity against Elymus repens (couch grass) assessed as leaf necrotic lesion diameter at 1 mg/mL measured after 72 hr post compound treatment by leaf disk-puncture bioassay", "format": "organism-based", "settings": "in vivo"}, "Solanum lycopersicum": {"system": "Solanum lycopersicum", "test": "Phytotoxicity activity against Solanum lycopersicum (tomato) assessed as leaf necrotic lesion diameter at 1 mg/mL measured after 72 hr post compound treatment by leaf disk-puncture bioassay", "format": "organism-based", "settings": "in vivo"}, "Radish": {"system": "Radish", "test": "Phytotoxicity activity against Raphanus sativus (radish) assessed as leaf necrotic lesion diameter at 1 mg/mL measured after 72 hr post compound treatment by leaf disk-puncture bioassay", "format": "organism-based", "settings": "in vivo"}, "Trifolium pratense": {"system": "Trifolium pratense", "test": "Phytotoxicity activity against Trifolium pratense (red clover) assessed as leaf necrotic lesion diameter at 1 mg/mL measured after 72 hr post compound treatment by leaf disk-puncture bioassay", "format": "organism-based", "settings": "in vivo"}, "Aegopodium podagraria": {"system": "Aegopodium podagraria", "test": "Phytotoxicity activity against Aegopodium podagraria (bishop's weed) assessed as leaf necrotic lesion diameter at 1 mg/mL measured after 72 hr post compound treatment by leaf disk-puncture bioassay", "format": "organism-based", "settings": "in vivo"}, "Cichorium intybus [2]": {"system": "Cichorium intybus", "test": "Phytotoxicity activity against Cichorium intybus (chicory) assessed as leaf necrotic lesion diameter at 1 mg/mL measured after 72 hr post compound treatment by leaf disk-puncture bioassay", "format": "organism-based", "settings": "in vivo"}, "Cirsium arvense [3]": {"system": "Cirsium arvense", "test": "Herbicidal activity against Cirsium arvense (Canada thistle) assessed as leaf necrotic lesion diameter at 1 mg/mL measured after 72 hr post compound treatment by leaf disk-puncture bioassay", "format": "functional"}, "Cichorium intybus [4]": {"system": "Cichorium intybus", "test": "Inhibition of root growth in Cichorium intybus (chicory) seedlings soaked in 1 mg/mL compound solutions for 1 hr relative to untreated control", "format": "functional"}, "Cirsium arvense [5]": {"system": "Cirsium arvense", "test": "Herbicidal activity against Cirsium arvense (Canada thistle) assessed as induction of leaf necrosis measured after 2 days post compound treatment by leaf disk-puncture bioassay", "format": "functional", "settings": "48 h"}},
  "note": "Active and inactive are the calls of the source. No cut-off for these calls is given here.",
  "data": [
    {"compound": "C[C@H]1OC(=O)CC[C@H](O)C/C=C\\[C@H]1O", "values": [
      {"measurement": "Activity", "setting": "Cirsium arvense [1]", "result": "inactive"}
    ]},
    {"compound": "C[C@@H]1C[C@H](O)/C=C/[C@@H](O)/C=C\\C(=O)O1", "values": [
      {"measurement": "Activity", "setting": "Cirsium arvense [1]", "result": "inactive"}
    ]},
    {"compound": "C[C@@H]1OC(=O)/C=C\\[C@@H](O)/C=C/[C@@H]2O[C@H]12", "note": "[Stagonolide H]", "values": [
      {"measurement": "Activity", "setting": "Zea mays", "result": "< 4", "unit": "mm"},
      {"measurement": "Activity", "setting": "Elymus repens", "result": "< 4", "unit": "mm"},
      {"measurement": "Activity", "setting": "Solanum lycopersicum", "result": "< 4", "unit": "mm"},
      {"measurement": "Activity", "setting": "Radish", "result": "< 4", "unit": "mm"},
      {"measurement": "Activity", "setting": "Trifolium pratense", "result": "< 4", "unit": "mm"},
      {"measurement": "Activity", "setting": "Aegopodium podagraria", "result": "< 4", "unit": "mm"},
      {"measurement": "Activity", "setting": "Cichorium intybus [2]", "result": "< 4", "unit": "mm"},
      {"measurement": "Activity", "setting": "Cirsium arvense [3]", "result": 7.5, "unit": "mm"},
      {"measurement": "growth inhibition (GI)", "setting": "Cichorium intybus [4]", "result": 85, "unit": "%"},
      {"measurement": "Activity", "setting": "Cirsium arvense [1]", "result": "Active"},
      {"measurement": "MIC", "setting": "Cirsium arvense [5]", "result": 150, "unit": "µM"}
    ]},
    {"compound": "C[C@@H]1C[C@H](O)/C=C\\[C@@H](O)/C=C\\C(=O)O1", "values": [
      {"measurement": "Activity", "setting": "Cirsium arvense [1]", "result": "inactive"}
    ]}
  ]
}
